Measured values reported in patent US9000012B2 (priority 2009, dated 2015).

What was measured:
Phytophthora infestans = format: in vivo, Phytophthora infestans on tomato; conditions: preventive spray on young tomato plants, 500 ppm of active ingredient, inoculated one day after treatment, evaluated 7 days after inoculation; 0% = untreated control, 100% = no disease
[1] = logP of the compounds of table 1; format: physicochemical

| Compound | Efficacy (Phytophthora infestans) [%] | logP [1] |
| --- | --- | --- |
| CN(C)C(=O)C(=NOCc1cccc(NC(=O)OC(C)(C)C)n1)c1ccccc1 [Example 98] | 85 | 3.37 |
| CN(C)C(=O)C(=NOCc1cccc(NC(=O)C(F)(F)Oc2ccccc2)n1)c1ccccc1 [Example 110] | 70 | 3.73 |
| CNC(=O)C(=NOCc1cccc(NC(=O)C2COc3ccccc3O2)n1)c1ccccc1 (centres unmarked) [Example 75] | 85 | 3.06 |
| C#CCC(C)OC(=O)Nc1cccc(CON=C(C(=O)N(C)C)c2ccccc2)n1 (centres unmarked) [Example 101] | 95 | 3.07 |
| CN(C)C(=O)C(=NOCc1csc(NC(=O)C2COc3ccccc3O2)n1)c1ccccc1 (centres unmarked) [Example 129] | 92 | 3.15 |
| COc1ccc(CC(=O)Nc2cccc(CON=C(C(=O)N(C)C)c3ccccc3)n2)cc1 [Example 112] | 100 | 3.00 |
| CN(C)C(=O)C(=NOCc1cccc(NC(=O)C2COc3ccccc3O2)n1)c1ccccc1 (centres unmarked) [Example 109] | 98 | 3.42 |
